Among the data in patent publication US20120252741A1, “NOVEL SEMI-SYNTHETIC GLYCOPEPTIDES AS ANTIBACTERIAL AGENTS” (priority 2008, published 2012) are MIC values, retold here.

What all share (assay type): cell-based
Assay [1] has as its system Enterococcus faecalis 101 (ATCC 29212). Kind of assay: MIC, broth microdilution, EFc 101. The following applies: Enterococcus faecalis, ATCC29212, class symbols, read-out: MIC E FC 101. How it is done:
(§1) Antibacterial activity in vitro is investigated by broth microdilution method in Meuller-Hinton broth as recommended by NCCLS. All strains tested are clinical isolates either sensitive or resistant to natural glycopeptides. MIC values were determined using the CLSI-recommended broth microdilution procedure (Clinical and Laboratory Standards Institute, Methods for Dilution Antimicrobial Susceptibility Tests for Bacteria That Grow Aerobically; Approved Standard-Seventh Edition.). Automated liquid handlers (Multidrop 384, Labsystems, Helsinki, Finland; Biomek 2000 and Multimek 96, Beckman Coulter, Fullerton Calif.) were used to conduct serial dilutions and liquid transfers. The MIC value for vancomycin is given for comparison. The abbreviations for organisms tested are as follow: SA 100—Staphylococcus aureus 100 (ATCC 29213); SA 757—Staphylococcus aureus 757 (MRSA); SA 2012—Staphylococcus aureus 2012 (VISA); SE 835—Staphylococcus epidermidis 835; SE 831—Staphylococcus epidermidis 831 (MRSE); EFc 101—Enterococcus faecalis 101 (ATCC 29212); EFc 848—Enterococcus faecalis 848 (VRE, Van A); EFcm 800—Enterococcus faecium 800; EFcm 752—Enterococcus faecium 752 (VRE, Van A); SPNE 1195—Streptococcus pneumoniae 1195 (ATCC 49619); SPY 712—Streptococcus pyogenes 712.

The subject of another assay is Enterococcus faecium 800. Kind of assay: MIC, broth microdilution, EFcm 800. Particulars: Enterococcus faecium, 800, class symbols, read-out: MIC E FCM 800. How it is done: as §1
(In general: Broth dilution looks for growth in wells or tubes with falling amounts of substance.)

Assay [2] relates to Streptococcus pyogenes 712. In words: MIC, broth microdilution, SPY 712. The following applies: Streptococcus pyogenes, 712, class symbols, read-out: MIC S PYO 712. How it is done: as §1
The test system of assay [3] is Enterococcus faecium 752 (VRE, Van A). In words: MIC, broth microdilution, EFcm 752. Particulars: VRE, Van A, class symbols, read-out: MIC E FCM 752. How it is done: as §1
Assay [4] concerns Enterococcus faecalis 848 (VRE, Van A). In words: MIC, broth microdilution, EFc 848. Particulars: VRE, Van A, class symbols, read-out: MIC E FC 848. How it is done:
as §1

The test system of assay [5] is Staphylococcus epidermidis 835. Kind of assay: MIC, broth microdilution, SE 835. The following applies: Staphylococcus epidermidis, 835, class symbols, read-out: MIC SE 835. How it is done: as §1
In assay [6] the test system is Staphylococcus aureus 100 (ATCC 29213). Kind of assay: MIC, broth microdilution, SA 100. The following applies: Staphylococcus aureus, ATCC29213, class symbols, read-out: MIC SA 100. How it is done:
as §1

Assay [7] relates to Staphylococcus aureus 2012 (VISA). In words: MIC, broth microdilution, SA 2012. The following applies: read-out: MIC SA 2012. How it is done:
as §1

Assay [8] deals with Staphylococcus epidermidis 831 (MRSE). In words: MIC, broth microdilution, SE 831. The following applies: Staphylococcus epidermidis, read-out: MIC SE 831. How it is done:
as §1

The subject of assay [9] is Streptococcus pneumoniae 1195 (ATCC 49619). In words: MIC, broth microdilution, SPNE 1195. Particulars: Streptococcus pneumoniae, ATCC49619, class symbols, read-out: MIC S PNE 1195. How it is done:
as §1

The subject of assay [10] is Staphylococcus aureus 757 (MRSA). Kind of assay: MIC, broth microdilution, SA 757. The following applies: read-out: MIC SA 757. How it is done:
as §1

The mark [11] stands for this setting: Table 2, in the presence of 0.002% Polysorbate 80.
Setting [12] is: Table 2, in the presence of 0.002% Polysorbate 80, class symbols.

Molecules are shown by their SMILES. ≈ marks a conversion by molar mass, not a printed value. Like-named read-outs stand apart in the source and are kept apart here. Some results are limits rather than exact numbers.

For `CCOCCOCCOc1ccc(S(=O)(=O)NC(=O)C[C@@H]2NC(=O)[C@H](NC(=O)[C@@H](CC(C)C)NC)[C@H](O)c3ccc(c(Cl)c3)Oc3cc4cc(c3O[C@@H]3O[C@H](CN)[C@@H](O)[C@H](O)[C@H]3O)Oc3ccc(cc3Cl)[C@@H](O)[C@@H]3NC(=O)[C@H](NC(=O)[C@@H]4NC2=O)c2ccc(O)c(c2)-c2c(O)cc(O)cc2[C@@H](C(=O)NC2C4CC5CC(C4)CC2C5)NC3=O)cc1` (some centres unmarked) [Compound 103], the MIC fell in the range of 0.01 to 0.5 µg/mL (≈ 0.00585 to 0.292 µM) in [1] (Table 1); 0.01 to 0.5 µg/mL (≈ 0.00585 to 0.292 µM) in the assay on Enterococcus faecium 800 (Table 1); 0.01 to 0.5 µg/mL (≈ 0.00585 to 0.292 µM) in [2] (Table 1); 1 to 2 µg/mL (≈ 0.585 to 1.17 µM) in assay [3] (Table 1); 2 to 4 µg/mL (≈ 1.17 to 2.34 µM) in assay [4] (Table 1); 0.01 to 0.5 µg/mL (≈ 0.00585 to 0.292 µM) in assay [5] (Table 1). For the same compound, the MIC in [6] (Table 1) lay within 0.5 to 1 µg/mL (≈ 0.292 to 0.585 µM); in assay [7] (Table 1, class symbols), 1 to 2 µg/mL (≈ 0.585 to 1.17 µM); in assay [8] (Table 1, class symbols), 0.01 to 0.5 µg/mL (≈ 0.00585 to 0.292 µM); in [9] (Table 1) it was 0.5 to 1 µg/mL (≈ 0.292 to 0.585 µM); in assay [10] (Table 1, class symbols) it was 0.01 to 0.5 µg/mL (≈ 0.00585 to 0.292 µM).
Consider `CCCCOc1ccc(S(=O)(=O)NC(=O)C[C@@H]2NC(=O)[C@H](NC(=O)[C@@H](CC(C)C)NC)[C@H](O)c3ccc(c(Cl)c3)Oc3cc4cc(c3O[C@@H]3O[C@H](CO)[C@@H](O)[C@H](O)[C@H]3O)Oc3ccc(cc3Cl)[C@@H](O)[C@@H]3NC(=O)[C@H](NC(=O)[C@@H]4NC2=O)c2ccc(O)c(c2)-c2c(O)cc(O)cc2[C@@H](C(=O)NC2C4CC5CC(C4)CC2C5)NC3=O)cc1` (some centres unmarked) [Compound 117], for which the MIC fell in the range of 0.01 to 0.5 µg/mL (≈ 0.00605 to 0.303 µM) in assay [1] (Table 1); 0.01 to 0.5 µg/mL (≈ 0.00605 to 0.303 µM) in the assay with Enterococcus faecium 800 (Table 1); 0.01 to 0.5 µg/mL (≈ 0.00605 to 0.303 µM) in assay [2] (Table 1); 1 to 2 µg/mL (≈ 0.605 to 1.21 µM) in [3] (Table 1); 2 to 4 µg/mL (≈ 1.21 to 2.42 µM) in [4] (Table 1); 0.01 to 0.5 µg/mL (≈ 0.00605 to 0.303 µM) in [5] (Table 1). For the same compound, the MIC in assay [6] (Table 1) fell in the range of 0.01 to 0.5 µg/mL (≈ 0.00605 to 0.303 µM); in assay [7] (Table 1, class symbols), 2 to 4 µg/mL (≈ 1.21 to 2.42 µM); in [8] (Table 1, class symbols) it was 0.01 to 0.5 µg/mL (≈ 0.00605 to 0.303 µM); in assay [9] (Table 1) it was 0.01 to 0.5 µg/mL (≈ 0.00605 to 0.303 µM); in assay [10] (Table 1, class symbols) it was 0.01 to 0.5 µg/mL (≈ 0.00605 to 0.303 µM).
Regarding `CCCCCCOc1ccc(S(=O)(=O)NC(=O)C[C@@H]2NC(=O)[C@H](NC(=O)[C@@H](CC(C)C)NC)[C@H](O)c3ccc(c(Cl)c3)Oc3cc4cc(c3O[C@@H]3O[C@H](CO)[C@@H](O)[C@H](O)[C@H]3O)Oc3ccc(cc3Cl)[C@@H](O)[C@@H]3NC(=O)[C@H](NC(=O)[C@@H]4NC2=O)c2ccc(O)c(c2)-c2c(O)cc(O)cc2[C@@H](C(=O)NC2C4CC5CC(C4)CC2C5)NC3=O)cc1` (some centres unmarked) [Compound 118], the MIC in [1] (Table 1) was in the range of 0.5 to 1 µg/mL (≈ 0.298 to 0.595 µM); in the assay on Enterococcus faecium 800 (Table 1) it was 0.01 to 0.5 µg/mL (≈ 0.00595 to 0.298 µM); in assay [2] (Table 1), 0.01 to 0.5 µg/mL (≈ 0.00595 to 0.298 µM); in assay [3] (Table 1) it was 1 to 2 µg/mL (≈ 0.595 to 1.19 µM); in assay [4] (Table 1), 2 to 4 µg/mL (≈ 1.19 to 2.38 µM); in assay [5] (Table 1), 1 to 2 µg/mL (≈ 0.595 to 1.19 µM). Besides, the MIC was 2 to 4 µg/mL (≈ 1.19 to 2.38 µM) in assay [6] (Table 1); more than 16 µg/mL in [7] (Table 1, class symbols); 1 to 2 µg/mL (≈ 0.595 to 1.19 µM) in [8] (Table 1, class symbols); 0.01 to 0.5 µg/mL (≈ 0.00595 to 0.298 µM) in assay [9] (Table 1); 1 to 2 µg/mL (≈ 0.595 to 1.19 µM) in [10] (Table 1, class symbols).
Regarding `CNCCOc1ccc(C(=O)NC(=O)C[C@@H]2NC(=O)[C@H](NC(=O)[C@@H](CC(C)C)NC)[C@H](O)c3ccc(c(Cl)c3)Oc3cc4cc(c3O[C@@H]3O[C@H](CO)[C@@H](O)[C@H](O)[C@H]3O[C@H]3C[C@](C)(N)[C@H](O)[C@H](C)O3)Oc3ccc(cc3Cl)[C@@H](O)[C@@H]3NC(=O)[C@H](NC(=O)[C@@H]4NC2=O)c2ccc(O)c(c2)-c2c(O)cc(O)cc2[C@@H](C(=O)NC2C4CC5CC(C4)CC2C5)NC3=O)cc1OCCNC` (some centres unmarked) [Compound 152], the MIC in assay [1] (setting [11]) was 0.01 to 0.5 µg/mL; in the assay with Enterococcus faecium 800 (setting [11]) it was 0.01 to 0.5 µg/mL; in assay [2] (setting [11]), 0.01 to 0.5 µg/mL; in [3] (setting [11]), 4 to 8 µg/mL; in [4] (setting [11]) it was more than 16 µg/mL; in [5] (setting [11]) it was 0.01 to 0.5 µg/mL. Further, the MIC lay in the range of 0.01 to 0.5 µg/mL in assay [6] (setting [11]); 1 to 2 µg/mL in assay [7] (setting [12]); 0.01 to 0.5 µg/mL in [8] (setting [12]); 0.01 to 0.5 µg/mL in assay [9] (setting [11]); 0.01 to 0.5 µg/mL in assay [10] (setting [12]).

For orientation: MIC means the smallest concentration in the dilution series that meets the test's criterion for growth inhibition.
